Results on 20 compounds are retold here after patent US9656990B2, “Cathepsin cysteine protease inhibitors” (Merck Sharp & Dohme Corp., priority 2014, dated 2017).

Assay [1] has as its target human cathepsin K (UniProt P43236, Y175D/V274L, species not given). Nature of the assay: Cathepsin K Assay. In kind it is biochemical. The note with it: IP from dose response curve; Z-Leu-Arg-AMC substrate, pH 5.5; read-out: hrbCat K (IP (nM)).
The target of assay [2] is T1, human cathepsin F (Homo sapiens, UniProt Q9UBX1).
T1 sequence (Q9UBX1 271-484): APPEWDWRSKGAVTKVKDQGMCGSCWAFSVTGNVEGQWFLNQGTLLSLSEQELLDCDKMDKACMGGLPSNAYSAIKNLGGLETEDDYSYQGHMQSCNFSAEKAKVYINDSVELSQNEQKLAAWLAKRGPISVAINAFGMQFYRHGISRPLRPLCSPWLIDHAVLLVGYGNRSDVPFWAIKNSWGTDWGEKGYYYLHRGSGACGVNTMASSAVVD
Nature of the assay: Cathepsin F Assay. In kind it is biochemical. The settings on record: IP from dose response curve; Z-Phe-Arg-AMC substrate, pH 5.5; read-out: hCat F (IP (nM)). Put shortly: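 Human cathepsin F (10 nM) preincubated 15 min at room temperature with compounds in 50 mM MES pH 5.5, 2.5 mM EDTA, 2.5 mM DTT, 10% DMSO. Z-Phe-Arg-AMC (8 μM) added; AMC release read by fluorescence (Ex 360/Em 460 nm) over 20 min, inhibition fit to dose-response model.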

Structures are written as SMILES.

As for `Cc1c(-c2ccc(N3CCS(=N)(=O)CC3)cc2)c([C@@H]2CCCC[C@H]2C(=O)N[C@@H](C)C#N)nn1-c1ncccc1F` [Example 51, (1R,2R)-N-((S)-1-cyanoethyl)-2-(1-(3-fluoropyridin-2-yl)-4-(4-(1-imino-1-oxidothiomorpholino)phenyl)-5-methyl-1H-pyrazol-3-yl)cyclohexanecarboxamide], the IC50 in assay [1] amounted to 7.41 nM; in assay [2] it was 3870 nM.

For `Cc1c(-c2ccc(N3CCS(=N)(=O)CC3)cc2)c([C@@H]2CCCC[C@H]2C(=O)N[C@H](C#N)C(C)C)nn1-c1ncccc1F` [Example 52, (1R,2R)-N-((S)-1-cyano-2-methylpropyl)-2-(1-(3-fluoropyridin-2-yl)-4-(4-(1-imino-1-oxidothiomorpholino)phenyl)-5-methyl-1H-pyrazol-3-yl)cyclohexanecarboxamide], the IC50 was determined as 22.5 nM in assay [1] and 9320 nM in assay [2].

For `C[C@@H](C#N)NC(=O)[C@@H]1C[C@@H](F)CC[C@H]1c1nn(-c2ncccc2F)cc1-c1ccc(N2CCS(=N)(=O)CC2)cc1` [Example 57, (1R,2R,5S)-N-((S)-1-cyanoethyl)-5-fluoro-2-(1-(3-fluoropyridin-2-yl)-4-(4-(1-imino-1-oxidothiomorpholino)phenyl)-1H-pyrazol-3-yl)cyclohexanecarboxamide], the IC50 in assay [1] was 8.3 nM; in assay [2], 7770 nM.

Turning to `N#CC1(NC(=O)[C@@H]2C[C@@H](F)CC[C@H]2c2nn(-c3ccc(F)cn3)cc2-c2ccc(N3CCS(=N)(=O)CC3)cc2)CC1` [Example 59, (1R,2R,5S)-N-(1-cyanocyclopropyl)-5-fluoro-2-(1-(5-fluoropyridin-2-yl)-4-(4-(1-imino-1-oxidothiomorpholino)phenyl)-1H-pyrazol-3-yl)cyclohexanecarboxamide], the IC50 in assay [1] came to 1.29 nM; in assay [2], 2460 nM.

For the compound `C[C@@H](C#N)NC(=O)[C@@H]1C[C@@H](F)CC[C@H]1c1nn(-c2ccc(F)cn2)cc1-c1ccc(N2CCS(=N)(=O)CC2)cc1` [Example 60, (1R,2R,5S)-N-((S)-1-cyanoethyl)-5-fluoro-2-(1-(5-fluoropyridin-2-yl)-4-(4-(1-imino-1-oxidothiomorpholino)phenyl)-1H-pyrazol-3-yl)cyclohexanecarboxamide], the IC50 in assay [1] stood at 1.43 nM; in assay [2], 674 nM.

With `C[C@@H](C#N)NC(=O)[C@@H]1CC(F)(F)CC[C@H]1c1nn(-c2ccc(F)cc2)c(CO)c1-c1ccc(N2CCS(=O)(=O)CC2)cc1` [Example 61, (1R,2R)-N-((S)-1-cyanoethyl)-2-(4-(4-(1,1-dioxidothiomorpholino)phen-yl)-1-(4-fluorophenyl)-5-(hydroxymethyl)-1H-pyrazol-3-yl)-5,5-difluorocyclohexanecarbox-amide], the IC50 in assay [1] was 1.61 nM; in assay [2], 121 nM.

Take `N#CC1(NC(=O)[C@@H]2CC(F)(F)CC[C@H]2c2nn(-c3ccc(F)cn3)c(CF)c2-c2ccc(N3CCS(=O)(=O)CC3)cc2)CC1` [Example 62, (1R,2R)-N-(1-cyanocyclopropyl)-2-(4-(4-(1,1-dioxidothiomorpholino)phen-yl)-5-(fluoromethyl)-1-(5-fluoropyridin-2-yl)-1H-pyrazol-3-yl)-5,5-difluorocyclohexanecarbox-amide]: the IC50 in assay [1] was 1.33 nM; in assay [2], 151 nM.

As to `CC(C)[C@@H](C#N)NC(=O)[C@@H]1CC(F)(F)CC[C@H]1c1nn(-c2ccc(F)cc2)c(CO)c1-c1ccc(N2CCS(=O)(=O)CC2)cc1` [Example 63, (1R,2R)-N-((S)-1-cyano-2-methylpropyl)-2-(4-(4-(1,1-dioxidothiomorpholino)phen-yl)-1-(4-fluorophenyl)-5-(hydroxymethyl)-1H-pyrazol-3-yl)-5,5-difluorocyclohexanecarbox-amide], the IC50 is 1.98 nM in assay [1] and 98 nM in assay [2].

As for `C[C@@H](C#N)NC(=O)[C@@H]1CCCC[C@H]1c1nn(-c2ccc(F)cc2)c(CO)c1-c1ccc(N2CCS(=O)(=O)CC2)cc1` [Example 64, (1R,2R)-N-((S)-1-cyanoethyl)-2-(4-(4-(1,1-dioxidothiomorpholino)phen-yl)-1-(4-fluorophenyl)-5-(hydroxymethyl)-1H-pyrazol-3-yl)cyclohexanecarboxamide], the IC50 is 4.61 nM in assay [1] and 565 nM in assay [2].

With `CC(C)[C@@H](C#N)NC(=O)[C@@H]1CCCC[C@H]1c1nn(-c2ccc(F)cc2)c(CO)c1-c1ccc(N2CCS(=O)(=O)CC2)cc1` [Example 65, (1R,2R)-N-((S)-1-cyano-2-methylpropyl)-2-(4-(4-(1,1-dioxidothiomorpholino)phen-yl)-1-(4-fluorophenyl)-5-(hydroxymethyl)-1H-pyrazol-3-yl)cyclohexanecarboxamide], the IC50 in assay [1] turned out to be 11 nM; in assay [2] it was 868 nM.

For `Cc1c(-c2ccc(N3CCS(=O)(=O)CC3)cc2)c([C@@H]2CCCC[C@H]2C(=O)N[C@@H](C)C#N)nn1-c1ccc(F)cn1` [Example 66, (1R,2R)-N-((S)-1-cyanoethyl)-2-(4-(4-(1,1-dioxidothiomorpholino)phen-yl)-1-(5-fluoropyridin-2-yl)-5-methyl-1H-pyrazol-3-yl)cyclohexanecarboxamide], the IC50 was 3.6 nM in assay [1] and 653 nM in assay [2].

Regarding `C[C@@H](C#N)NC(=O)[C@@H]1CC(F)(F)CC[C@H]1c1nn(-c2ccc(F)cn2)c(CO)c1-c1ccc(N2CCS(=O)(=O)CC2)cc1` [Example 67, (1R,2R)-N-((S)-1-cyanoethyl)-2-(4-(4-(1,1-dioxidothiomorpholino)phen-yl)-1-(5-fluoropyridin-2-yl)-5-(hydroxymethyl)-1H-pyrazol-3-yl)-5,5-difluorocyclohexanecarbox-amide], the IC50 in assay [1] is 1.24 nM; in assay [2] it was 146 nM.

On to `N#CC1(NC(=O)[C@@H]2CC(F)(F)CC[C@H]2c2nn(-c3ccc(F)cn3)c(CO)c2-c2ccc(N3CCS(=O)(=O)CC3)cc2)CC1` [Example 68, (1R,2R)-N-(1-cyanocyclopropyl)-2-(4-(4-(1,1-dioxidothiomorpholino)phen-yl)-1-(5-fluoropyridin-2-yl)-5-(hydroxymethyl)-1H-pyrazol-3-yl)-5,5-difluorocyclohexanecarbox-amide], for which the results for the IC50 in assay [1] and in assay [2] were 1.41 nM and 125 nM, respectively.

For the compound `CC(C)[C@@H](C#N)NC(=O)[C@@H]1CC(F)(F)CC[C@H]1c1nn(-c2ccc(F)cn2)c(CO)c1-c1ccc(N2CCS(=O)(=O)CC2)cc1` [Example 69, (1R,2R)-N-((S)-1-cyano-2-methylpropyl)-2-(4-(4-(1,1-dioxidothiomorpholino)phen-yl)-1-(5-fluoropyridin-2-yl)-5-(hydroxymethyl)-1H-pyrazol-3-yl)-5,5-difluorocyclohexanecarbox-amide], the IC50 in assay [1] stood at 2.68 nM; in assay [2] it was 225 nM.

As for `N#CC1(NC(=O)[C@@H]2CC(F)(F)CC[C@H]2c2nn(-c3ccc(F)cn3)c(CO)c2-c2ccc(N3CCS(=O)(=O)CC3)cc2)CC1` [Example 70, (1R,2R)-N-(1-cyanocyclopropyl)-2-(4-(4-(1,1-dioxidothiomorpholino)phen-yl)-1-(5-fluoropyridin-2-yl)-5-(hydroxymethyl)-1H-pyrazol-3-yl)-5,5-difluorocyclohexanecarbox-amide], the values for the IC50 in assay [1] and in assay [2] were 1.9 nM and 185 nM, respectively.

As to `N#CC1(NC(=O)[C@@H]2CC(F)(F)CC[C@H]2c2nn(-c3ccc(F)cn3)c(C(F)F)c2-c2ccc(N3CCS(=O)(=O)CC3)cc2)CC1` [Example 71, (1R,2R)-N-(1-cyanocyclopropyl)-2-(5-(difluoromethyl)-4-(4-(1,1-dioxidothiomorpholino)phen-yl)-1-(5-fluoropyridin-2-yl)-1H-pyrazol-3-yl)-5,5-difluorocyclohexanecarbox-amide], the IC50 in assay [1] was determined as 2.35 nM; in assay [2], 149 nM.

Regarding `C[C@@H](C#N)NC(=O)[C@@H]1CC(F)(F)CC[C@H]1c1nn2ccccc2c1-c1ccc(N2CCS(=O)(=O)CC2)cc1` [Example 72, (1R,2R)-N-((S)-1-cyanoethyl)-2-(3-(4-(1,1-dioxidothiomorpholino)phen-yl)pyrazolo[1,5-a]pyridin-2-yl)-5,5-difluorocyclohexanecarbox-amide], the results for the IC50 in assay [1] and in assay [2] were 2.66 nM and 230 nM, respectively.

Consider `CC(C)[C@@H](C#N)NC(=O)[C@@H]1CC(F)(F)CC[C@H]1c1nn2ccccc2c1-c1ccc(N2CCS(=O)(=O)CC2)cc1` [Example 73, (1R,2R)-N-((S)-1-cyano-2-methylpropyl)-2-(3-(4-(1,1-dioxidothiomorpholino)phen-yl)pyrazolo[1,5-a]pyridin-2-yl)-5,5-difluorocyclohexanecarbox-amide], for which the results for the IC50 in assay [1] and in assay [2] were 5.19 nM and 269 nM, respectively.

As to `N#CCNC(=O)[C@@H]1CC(F)(F)CC[C@H]1c1nn(-c2ccc(F)cc2)cc1-c1ccc(N2CCS(=O)(=O)CC2)cc1` [Example 81, (1R,2R)-N-(cyanomethyl)-2-(4-(4-(1,1-dioxidothiomorpholino)phen-yl)-1-(4-fluorophenyl)-1H-pyrazol-3-yl)-5,5-difluorocyclohexanecarbox-amide], the results for the IC50 in assay [1] and in assay [2] were 0.37 nM and 11 nM, respectively.

Turning to `N#CCNC(=O)[C@H]1CC(F)(F)CC[C@@H]1c1nn(-c2ccc(F)cc2)cc1-c1ccc(N2CCS(=O)(=O)CC2)cc1` [Example 82, (1S,2S)-N-(cyanomethyl)-2-(4-(4-(1,1-dioxidothiomorpholino)phen-yl)-1-(4-fluorophenyl)-1H-pyrazol-3-yl)-5,5-difluorocyclohexanecarbox-amide], the IC50 is 144 nM in assay [1] and 1400 nM in assay [2].
